Data: the NIST ThermoML archive (doi:10.1021/je301347v)

Experiment: xn = mol fraction of the nth substance listed
Details: 101 kPa, Liquid, Voltage change across transformer (no electrode)

CCCC[n+]1ccccc1.F[B-](F)(F)F [1-butylpyridinium tetrafluoroborate] + CCO
electrical conductivity [S/m]
Details | 303.15 K | 313.15 K | 323.15 K
x1 = 0.0353 | 0.785 | 1.02 | 1.32
x1 = 0.0417 | 0.863 | 1.18 | 1.38
x1 = 0.0455 | 1.06 | 1.27 | 1.54
x1 = 0.0461 | 1.04 | 1.29 | 1.54
x1 = 0.0551 | 1.15 | 1.48 | 1.72
x1 = 0.0564 | 1.24 | 1.5 | 1.83
x1 = 0.0634 | 1.44 | 1.64 | 2.22
x1 = 0.0735 | 1.43 | 1.82 | 2.12
x1 = 0.084 | 1.56 | 1.98 | 2.31
x1 = 0.1033 | 1.68 | 2.24 | 2.56
x1 = 0.1165 | 1.8 | 2.39 | 2.7
x1 = 0.1291 | 1.86 | 2.51 | 2.92
x1 = 0.1597 | 2.16 | 2.74 | 3.01
x1 = 0.1656 | 2.28 | 2.77 | 3.23
x1 = 0.2093 | 2.38 | 2.95 | 3.41
x1 = 0.2237 | 2.44 | 2.96 | 3.43
x1 = 0.2751 | 2.46 | 2.97 | 3.45
x1 = 0.3929 | 2.17 | 2.7 | 3.2
x1 = 0.4464 | 1.96 | 2.5 | 2.86
x1 = 0.5095 | 1.66 | 2.2 | 2.56
x1 = 0.617 | 1.2 | 1.77 | 2.17
x1 = 0.7008 | 0.884 | 1.43 | 1.71
x1 = 0.8158 | 0.566 | 1.03 | 1.28
x1 = 0.8973 | 0.436 | 0.821 | 1.04
x1 = 1 | 0.321 | 0.519 | 0.785

CCCC[n+]1cccc(C)c1.F[B-](F)(F)F [1-butyl-3-methylpyridinium tetrafluoroborate] + CCO
electrical conductivity [S/m]
Details | 293.15 K | 303.15 K | 313.15 K | 323.15 K
x1 = 0.0613 | 0.787 | 1.02 | 1.26 | 1.53
x1 = 0.0737 | 0.888 | 1.14 | 1.42 | 1.72
x1 = 0.0915 | 1.02 | 1.31 | 1.63 | 1.96
x1 = 0.1113 | 1.14 | 1.48 | 1.84 | 2.19
x1 = 0.1366 | 1.24 | 1.63 | 2.04 | 2.43
x1 = 0.167 | 1.4 | 1.81 | 2.22 | 2.68
x1 = 0.1985 | 1.47 | 1.92 | 2.36 | 2.81
x1 = 0.2393 | 1.52 | 1.97 | 2.4 | 2.89
x1 = 0.2811 | 1.5 | 1.96 | 2.4 | 2.89
x1 = 0.3174 | 1.41 | 1.85 | 2.31 | 2.85
x1 = 0.3652 | 1.32 | 1.76 | 2.24 | 2.76
x1 = 0.4385 | 1.19 | 1.61 | 2.11 | 2.54
x1 = 0.4652 | 1.09 | 1.49 | 1.92 | 2.45
x1 = 0.5281 | 0.934 | 1.28 | 1.68 | 2.21
x1 = 0.5747 | 0.823 | 1.17 | 1.56 | 2.04
x1 = 0.6938 | 0.51 | 0.77 | 1.15 | 1.63
x1 = 0.7799 | 0.37 | 0.56 | 0.891 | 1.33
x1 = 0.9102 | 0.215 | 0.36 | 0.59 | 0.903
x1 = 1 | 0.155 | 0.281 | 0.461 | 0.704

CCCC[n+]1ccccc1.F[B-](F)(F)F [1-butylpyridinium tetrafluoroborate] + CO
electrical conductivity [S/m]
Details | 293.15 K | 303.15 K | 313.15 K | 323.15 K
x1 = 0.0432 | 2.87 | 3.37 | 3.91 | 4.28
x1 = 0.0485 | 2.98 | 3.51 | 3.95 | 4.62
x1 = 0.0698 | 3.21 | 3.82 | 4.45 | 5.11
x1 = 0.0901 | 3.45 | 4.17 | 4.89 | 5.46
x1 = 0.1091 | 3.71 | 4.39 | 5.14 | 5.81
x1 = 0.1252 | 3.75 | 4.54 | 5.35 | 6.06
x1 = 0.142 | 3.82 | 4.61 | 5.45 | 6.12
x1 = 0.1629 | 3.79 | 4.59 | 5.49 | 6.19
x1 = 0.1773 | 3.78 | 4.57 | 5.38 | 6.12
x1 = 0.2273 | 3.47 | 4.3 | 5.16 | 6.01
x1 = 0.2401 | 3.43 | 4.26 | 5.13 | 5.94
x1 = 0.2966 | 3.14 | 3.99 | 4.81 | 5.59
x1 = 0.3803 | 2.37 | 3.05 | 3.72 | 4.51
x1 = 0.4277 | 2.07 | 2.71 | 3.39 | 4.08
x1 = 0.4808 | 1.75 | 2.29 | 2.89 | 3.49
x1 = 0.5618 | 1.2 | 1.72 | 2.22 | 2.77
x1 = 0.6317 | 0.894 | 1.35 | 1.81 | 2.35
x1 = 0.698 | 0.74 | 1.07 | 1.45 | 1.89
x1 = 0.8355 | 0.406 | 0.647 | 0.966 | 1.39
x1 = 0.879 | 0.321 | 0.514 | 0.776 | 1.12
x1 = 0.9279 | 0.27 | 0.446 | 0.684 | 0.976
x1 = 1 | 0.181 | 0.321 | 0.519 | 0.785

CCCC[n+]1ccc(C)cc1.F[B-](F)(F)F [1-butyl-4-methylpyridinium tetrafluoroborate] + CO
electrical conductivity [S/m]
Details | 293.15 K | 303.15 K | 313.15 K | 323.15 K
x1 = 0.0426 | 2.81 | 3.25 | 3.55 | 4.09
x1 = 0.0499 | 2.99 | 3.46 | 3.93 | 4.37
x1 = 0.0584 | 3.18 | 3.71 | 4.17 | 4.65
x1 = 0.0716 | 3.38 | 3.99 | 4.56 | 5.02
x1 = 0.0898 | 3.58 | 4.25 | 4.82 | 5.4
x1 = 0.1093 | 3.72 | 4.43 | 5.08 | 5.67
x1 = 0.1256 | 3.76 | 4.52 | 5.2 | 5.82
x1 = 0.1425 | 3.78 | 4.56 | 5.27 | 5.92
x1 = 0.2197 | 3.47 | 4.38 | 5.15 | 5.85
x1 = 0.2475 | 3.31 | 4.22 | 5 | 5.7
x1 = 0.305 | 3.13 | 3.84 | 4.61 | 5.27
x1 = 0.3465 | 2.81 | 3.53 | 4.27 | 4.9
x1 = 0.4593 | 2.18 | 2.68 | 3.3 | 3.83
x1 = 0.5657 | 1.42 | 1.93 | 2.47 | 2.85
x1 = 0.6744 | 0.993 | 1.28 | 1.71 | 1.99
x1 = 0.7908 | 0.565 | 0.761 | 1.12 | 1.29
x1 = 0.8788 | 0.341 | 0.487 | 0.78 | 0.925
x1 = 1 | 0.132 | 0.254 | 0.439 | 0.687

CCCC[n+]1ccc(C)cc1.F[B-](F)(F)F [1-butyl-4-methylpyridinium tetrafluoroborate] + CCO
electrical conductivity [S/m]
Details | 293.15 K | 303.15 K | 313.15 K | 323.15 K
x1 = 0.0448 | 0.696 | 0.877 | 1.01 | 1.1
x1 = 0.0521 | 0.791 | 1.01 | 1.22 | 1.3
x1 = 0.0608 | 0.893 | 1.15 | 1.42 | 1.55
x1 = 0.0701 | 0.991 | 1.28 | 1.58 | 1.76
x1 = 0.0843 | 1.15 | 1.47 | 1.82 | 1.95
x1 = 0.1046 | 1.29 | 1.65 | 2.08 | 2.41
x1 = 0.1232 | 1.39 | 1.8 | 2.26 | 2.64
x1 = 0.1347 | 1.44 | 1.86 | 2.33 | 2.76
x1 = 0.1551 | 1.5 | 1.95 | 2.47 | 2.92
x1 = 0.1602 | 1.51 | 1.97 | 2.49 | 2.96
x1 = 0.2251 | 1.59 | 2.09 | 2.67 | 3.22
x1 = 0.247 | 1.59 | 2.09 | 2.68 | 3.26
x1 = 0.3371 | 1.52 | 2.02 | 2.61 | 3.22
x1 = 0.3512 | 1.5 | 2 | 2.59 | 3.22
x1 = 0.3799 | 1.45 | 1.95 | 2.52 | 3.17
x1 = 0.3856 | 1.44 | 1.94 | 2.52 | 3.16
x1 = 0.4126 | 1.4 | 1.88 | 2.46 | 3.1
x1 = 0.5649 | 1.1 | 1.37 | 2.01 | 2.63
x1 = 0.6798 | 0.851 | 1.02 | 1.61 | 2.16
x1 = 0.7941 | 0.601 | 0.696 | 1.2 | 1.68
x1 = 0.9258 | 0.305 | 0.38 | 0.717 | 1.06
x1 = 0.9963 | 0.154 | 0.242 | 0.459 | 0.74
x1 = 1 | 0.132 | 0.254 | 0.439 | 0.687

CCCC[n+]1cccc(C)c1.F[B-](F)(F)F [1-butyl-3-methylpyridinium tetrafluoroborate] + CO
electrical conductivity [S/m]
Details | 293.15 K | 303.15 K | 313.15 K | 323.15 K
x1 = 0.0337 | 2.29 | 2.71 | 3.11 | 3.5
x1 = 0.0438 | 2.45 | 2.89 | 3.34 | 3.8
x1 = 0.0479 | 2.66 | 3.12 | 3.6 | 4.09
x1 = 0.0567 | 2.9 | 3.41 | 3.96 | 4.53
x1 = 0.0699 | 3.17 | 3.85 | 4.49 | 5.1
x1 = 0.1142 | 3.33 | 3.98 | 4.66 | 5.38
x1 = 0.1504 | 3.37 | 4.06 | 4.74 | 5.5
x1 = 0.1734 | 3.31 | 4.01 | 4.74 | 5.52
x1 = 0.2236 | 3.11 | 3.8 | 4.55 | 5.34
x1 = 0.2696 | 2.78 | 3.44 | 4.15 | 4.89
x1 = 0.3345 | 2.43 | 3.08 | 3.77 | 4.49
x1 = 0.378 | 2.19 | 2.8 | 3.45 | 4.11
x1 = 0.4258 | 1.76 | 2.31 | 2.95 | 3.59
x1 = 0.5198 | 1.3 | 1.82 | 2.3 | 2.87
x1 = 0.61 | 0.944 | 1.32 | 1.78 | 2.27
x1 = 0.729 | 0.472 | 0.686 | 1.04 | 1.58
x1 = 0.8344 | 0.28 | 0.413 | 0.672 | 1.05
x1 = 0.9177 | 0.191 | 0.311 | 0.523 | 0.817
x1 = 1 | 0.155 | 0.281 | 0.461 | 0.704
